Results reported in paper PMC6851324, “Design and development of stapled transmembrane peptides that disrupt the activity of G-protein–coupled receptor oligomers” (The Journal of Biological Chemistry, 2019).
Where a SMILES comes first, the peptide text is derived from it.

B1: CB1R N-terminally tagged with LgBiT or SmBiT, CMV promoter (receptor, human, UniProt P21554 1-472, looked up)
chain: MKSILDGLADTTFRTITTDLLYVGSNDIQYEDIKGDMASKLGYFPQKFPLTSFRGSPFQEKMTAGDNPQLVPADQVNITEFYNKSLSSFKENEENIQCGENFMDIECFMVLNPSQQLAIAVLSLTLGTFTVLENLLVLCVILHSRSLRCRPSYHFIGSLAVADLLGSVIFVYSFIDFHVFHRKDSRNVFLFKLGGVTASFTASVGSLFLTAIDRYISIHRPLAYKRIVTRPKAVVAFCLMWTIAIVIAVLPLLGWNCEKLQSVCSDIFPHIDETYLMFWIGVTSVLLLFIVYAYMYILWKAHSHAVRMIQRGTQKSIIIHTSEDGKVQVTRPDQARMDIRLAKTLVLILVVLIICWGPLLAIMVYDVFGKMNKLIKTVFAFCSMLCLLNSTVNPIIYALRSKDLRHAFRSMFPSCEGTAQPLDNSMGDSDCLHKHANNAASVHRAAESCIKSTVKIAKVTMSVSTDTSAEAL
notes: cannabinoid receptor type 1 (CB1R), human, cloned from the cDNA Resource Center plasmid; also called LgBiT–CB1R; LgBT–CB1R; source: HEK293, transiently transfected (CMV promoter), live cells; not shown: LgBiT or SmBiT (one of the two on each copy; LgBiT in the peptide screen), N-terminal, kept

Legend:
[1] = molecular target: T1, trypsin from porcine pancreas (Sus scrofa, UniProt P00761); experiment: Proteolytic stability against trypsin; format: in vitro ADME; conditions: pig, isolated enzyme trypsin; 55.5 μM peptide, 0.55 μg/ml trypsin from porcine pancreas, ammonium bicarbonate buffer pH 7.5, 37 °C, 15–480 min, intact peptide by RP-HPLC (Fmoc-Gly internal standard), n = 3, nonlinear regression fit; read-out: Half-life (min), trypsin
T1 construct: purchased Sigma; host or cells: porcine pancreas
Experimental: (§1) Figure 4. Biophysical analysis of stapled peptides. A, amino acid sequence alignment of the targeted TM regions and disrupting peptides. Cys residues are in the reduced state. Blue bridges indicate the stapled amino acid residues. […] Yields, purity, and MALDI-TOF data are shown for the stapled peptides and negative control. B, CD analysis of 30–50 μM peptides at 20 °C. For proteolytic stability studies, the peptide solution (55.5 μM for trypsin and chymotrypsin and 11.1 μM for serum) was incubated in the presence of 0.55 μg/ml trypsin from porcine pancreas (E), α-chymotrypsin (F), or mouse serum (G) at 37 °C for the indicated times (indicated on the x axis). Data are mean ± S.E. (error bars) (n = 3) percentage of intact peptide normalized to t = 0. Proteolytic half-lives and putative cleavage sites (predicted using the Expasy bioinformatics server's model with a 50% probability of cleavage) are indicated at the bottom of each panel. Positive correlation between helicity and half-life in trypsin/chymotrypsin (C) or serum (D) was determined by two-tailed Pearson's correlation test. TEXT PRINTED IN THE PICTURE: (B) TM7-TAT: Ellipticity (%): 3.4 | (B) TM6-TAT: Ellipticity (%): 18.3 | (B) TM5-TAT: Ellipticity (%): 20.9 | (B) 8: Ellipticity (%): 58.3 | (B) 9: Ellipticity (%): 46.4 | (B) 10: Ellipticity (%): 36.8 | (B) 11: Ellipticity (%): 46 | (E) TM7-TAT: Half-life (min): 21; #Cleavage sites: 8 | (E) TM6-TAT: Half-life (min): 40; #Cleavage sites: 7 | (E) TM5-TAT: Half-life (min): 33; #Cleavage sites: 8 | (E) 8: Half-life (min): 307; #Cleavage sites: 0 | (E) 9: Half-life (min): 178; #Cleavage sites: 0 | (E) 10: Half-life (min): 75; #Cleavage sites: 6 | (E) 11: Half-life (min): 84; #Cleavage sites: 0 | (F) TM7-TAT: Half-life (min): 22; #Cleavage sites: 6 | (F) TM6-TAT: Half-life (min): 32; #Cleavage sites: 7 | (F) TM5-TAT: Half-life (min): 28; #Cleavage sites: 7 | (F) 8: Half-life (min): 425; #Cleavage sites: 4 | (F) 9: Half-life (min): 198; #Cleavage sites: 3 | (F) 10: Half-life (min): 63; #Cleavage sites: 2 | (F) 11: Half-life (min): 79; #Cleavage sites: 4 | (G) TM7-TAT: Half-life (hours): 0.46 | (G) TM6-TAT: Half-life (hours): 0.55 | (G) TM5-TAT: Half-life (hours): 0.81 | (G) 8: Half-life (hours): ≥18 | (G) 9: Half-life (hours): 14.7 | (G) 10: Half-life (hours): 11.7 | (G) 11: Half-life (hours): 5.3 DOUBTS OF THE COPYIST ABOUT THIS PICTURE: Panel A table (Yield, Rt, Purity, [M+H+] calc., [M+H+] Peak Found for 7-11) left out as synthesis and mass-spectrum characterisation data; uncertain whether [M+H+] calc. should count as a molecular weight
(§2) Dose–response curves were fitted using a four-parameter logistic nonlinear regression mode. Peptide stability data were fitted using a nonlinear regression mode for dissociation kinetics. All statistical tests, curve fitting, and graphing were performed using GraphPad Prism 8 (GraphPad Software, La Jolla, CA).
To 100 μl of peptide solution (100 μM, dissolved in ammonium bicarbonate buffer, pH 7.5), 60 μl of ammonium bicarbonate buffer (pH 7.5) was added, together with 20 μl of temperature-equilibrated (37 ± 1 °C) trypsin (5 μg/ml) from porcine pancreas (Sigma, 13,000–20,000 BAEE units/mg of protein). Peptides were incubated for 15, 30, 60, 120, 240, and 480 min, and then MeOH (HPLC Grade) + 0.05% TFA was added. The samples were then centrifuged (15,000 rpm), and the supernatant was analyzed, using Fmoc-Gly (10 μl, 0.2 mM) as an internal standard. The digestion at each time point was repeated three times to give the average values along with S.D. The amount of intact peptide that remained in the mixture was quantified by RP-HPLC. The experiment was repeated twice on different days.

[2] = Stability in mouse serum; format: in vitro ADME; conditions: 11.1 μM peptide, fresh nonsterile mouse serum (200 μl serum + 25 μl peptide solution, pH 7.5 buffer with 10% DMSO), 37 °C, quench 15% TCA in acetonitrile, HPLC, n = 3; read-out: Half-life (hours), mouse serum (converted)
Experimental: as §1, §2
To 200 μl of fresh nonsterile mouse serum was added 25 μl of peptide solution (100 μM, dissolved in ammonium bicarbonate buffer, pH 7.5, containing 10% DMSO), and the mixture was incubated at 37 °C. At the specified time, an aliquot of incubation mixture was withdrawn and quenched by the addition of an equal volume of 15% TCA in acetonitrile to precipitate out serum proteins over ice for 30 min. The mixture was then centrifuged at 13,500 rpm for 10 min, and the supernatant was collected and analyzed by HPLC in a similar manner as described previously. The experiment was repeated twice on different days.

[3] = molecular target: T2, α-chymotrypsin from bovine pancreas (Bos taurus, UniProt P00766, DEL14-15/DEL147-148); experiment: Proteolytic stability against chymotrypsin; format: in vitro ADME; conditions: cattle, isolated enzyme chymotrypsin; 55.5 μM peptide, 0.55 μg/ml α-chymotrypsin from bovine pancreas, ammonium bicarbonate buffer pH 7.5, 37 °C, 15–480 min, intact peptide by RP-HPLC, n = 3, nonlinear regression fit; read-out: Half-life (min), α-chymotrypsin
T2 construct: purchased Sigma Type II; host or cells: bovine pancreas
Experimental: as §1, §2
To 100 μl of peptide solution (100 μM, dissolved in ammonium bicarbonate buffer, pH 7.5), 60 μl of ammonium bicarbonate buffer (pH 7.5) was added, together with 20 μl of temperature-equilibrated (37 ± 1 °C) α-chymotrypsin (5 μg/ml) from bovine pancreas (Sigma, Type II, activity > 40 units/mg protein). Peptides were incubated for 15, 30, 60, 120, 240, and 480 min, and then MeOH (HPLC grade) + 0.05% TFA was added. The samples were then centrifuged (15,000 rpm), and supernatant was analyzed in a similar manner as described above. The experiment was repeated twice on different days.

[4] = tested on: 5-HT2AR–CB1R heteromers; set-up: method as in 2 sources, ref 16 = [16]; PMID 26158621; doi:10.1371/journal.pbio.1002194; 16. Viñals X. , Moreno E. , Lanfumey L. , Cordomí A. , Pastor A. , de La Torre R. , Gasperini P. , Navarro G. , Howell L. A. , Pardo L. , Lluís C. , Canela E. I. , McCormick P. J. , Maldonado R. , and ||| ref 4, unpublished observations; conditions: synthetic TM-mimicking peptides fused to HIV-TAT; cited from earlier work
[5] = molecular target: T3, 5-HT2AR N-terminally tagged with LgBiT or SmBiT, CMV promoter (human, UniProt P28223 1-471); experiment: split reporter (BiFC, NanoBiT); NanoBiT orientation screens: LgBiT and SmBiT receptor fusions (C- or N-terminal, CMV promoter) transiently co-transfected in HEK293 cells at 50 or 100 ng of receptor/well, compared with each construct alone; live cells, 24 h post-transfection, furimazine substrate; conditions: partners not purified
T3 construct: 5-hydroxytryptamine 2A receptor (5-HT2AR), human, cloned from the cDNA Resource Center plasmid; also called SmBiT–5-HT2AR; SmBiT 5-HT2AR; source: HEK293, transiently transfected (CMV promoter), live cells; not shown: LgBiT or SmBiT (one of the two on each copy; SmBiT in the peptide screen), N-terminal, kept
T3 sequence (P28223 whole entry, the tested form may be a part): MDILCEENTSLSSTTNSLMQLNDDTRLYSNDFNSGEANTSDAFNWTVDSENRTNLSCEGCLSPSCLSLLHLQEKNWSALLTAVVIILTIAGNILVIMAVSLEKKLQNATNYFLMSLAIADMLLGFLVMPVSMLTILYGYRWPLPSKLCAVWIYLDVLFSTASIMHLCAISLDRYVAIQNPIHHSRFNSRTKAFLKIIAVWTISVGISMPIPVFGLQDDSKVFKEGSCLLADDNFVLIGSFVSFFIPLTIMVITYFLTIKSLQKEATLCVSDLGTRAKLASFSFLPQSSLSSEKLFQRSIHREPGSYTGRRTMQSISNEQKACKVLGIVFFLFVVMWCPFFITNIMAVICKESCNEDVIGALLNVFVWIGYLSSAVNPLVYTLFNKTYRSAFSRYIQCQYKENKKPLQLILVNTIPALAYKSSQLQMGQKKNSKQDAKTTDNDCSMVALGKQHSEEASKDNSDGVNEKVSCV

T1 sequence (P00761 9-231): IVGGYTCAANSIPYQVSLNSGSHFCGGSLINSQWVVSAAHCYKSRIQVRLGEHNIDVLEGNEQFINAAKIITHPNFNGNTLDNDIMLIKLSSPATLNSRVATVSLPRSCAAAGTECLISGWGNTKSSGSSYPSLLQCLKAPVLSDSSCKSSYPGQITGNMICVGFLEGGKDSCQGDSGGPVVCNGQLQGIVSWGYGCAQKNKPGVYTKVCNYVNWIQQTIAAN

| Molecule | half-life at 55.5 μM [1] [min] | half-life at 11.1 μM [2] [h] | half-life at 55.5 μM [3] [min] | disruption of 5-HT2AR–CB1R heteromers (previous studies) [4] | fold change of luminescence over the individual receptor construct [5] [fold] |
| --- | --- | --- | --- | --- | --- |
| CC[C@H](C)[C@H](NC(=O)[C@@H](NC(=O)[C@@H]1CCCN1C(=O)[C@H](CC(N)=O)NC(=O)[C@@H](NC(=O)[C@@H](NC(=O)[C@H](CO)NC(=O)[C@H](CC(N)=O)NC(=O)[C@H](CC(C)C)NC(=O)[C@H](CC(C)C)NC(=O)[C@H](CS)NC(=O)[C@H](CC(C)C)NC(=O)[C@H](CCSC)NC(=O)[C@H](CO)NC(=O)[C@H](CS)NC(=O)[C@H](Cc1ccccc1)NC(=O)[C@H](C)NC(=O)[C@H](Cc1ccccc1)NC(=O)[C@@H](NC(=O)[C@@H](NC(=O)[C@H](CCCCN)NC(=O)[C@@H](NC(=O)[C@@H](N)CC(C)C)[C@@H](C)CC)[C@@H](C)O)C(C)C)[C@@H](C)O)C(C)C)[C@@H](C)CC)C(=O)N[C@@H](Cc1ccc(O)cc1)C(=O)N[C@@H](C)C(=O)N[C@@H](CC(C)C)C(=O)N[C@@H](CCCNC(=N)N)C(=O)NCC(=O)N[C@@H](CCCNC(=N)N)C(=O)N[C@@H](CCCCN)C(=O)N[C@@H](CCCCN)C(=O)N[C@@H](CCCNC(=N)N)C(=O)N[C@@H](CCCNC(=N)N)C(=O)N[C@@H](CCC(N)=O)C(=O)N[C@@H](CCCNC(=N)N)C(=O)N[C@@H](CCCNC(=N)N)C(=O)N[C@@H](CCCNC(=N)N)C(=O)O [TM7-TAT, reference compound] (H-LIKTVFAFCSMLCLLNSTVNPIIYALRGRKKRRQRRR-OH) | 21 | 0.46 | 22 | did not disrupt the heteromer |  |
| B1 |  |  |  |  | ~200 |
